What was measured:
[1] = target: Cytochrome P450 2D6 (Homo sapiens, UniProt P10635); assay: Inhibition of human CYP2D6; type: ADME
[2] = tested on: UGT; assay: Metabolic stability assessed as monkey UGT-mediated metabolism by measuring half life by phase II UGT conjugation assay; type: ADME, Macaca mulatta; conditions: rhesus monkey
[3] = Permeability of the compound at pH 5.5 by PAMPA assay; type: ADME; conditions: read-out: permeability
[4] = Plasma protein binding in human; type: ADME, cell-free; conditions: read-out: PPB (converted)
[5] = Elimination half life in CD-1 mouse at 1 mg/kg, iv by LC-MS/MS analysis; type: ADME, organism-based; conditions: in vivo, read-out: beta t1/2 (converted)
[6] = target: Cytochrome P450 2C19 (Homo sapiens, UniProt P33261); assay: Inhibition of human CYP2C19; type: ADME
[7] = AUC in Sprague-Dawley rat at 5 mg/kg, po by LC-MS/MS analysis; type: ADME, organism-based; design: dose 5 mg/kg; conditions: in vivo
[8] = Volume of distribution at steady state in Beagle dog at 1 mg/kg, iv by LC-MS/MS analysis; type: ADME, organism-based, Canis lupus familiaris; conditions: in vivo, read-out: Vdss
[9] = Volume of distribution at steady state in Sprague-Dawley rat at 1 mg/kg, iv by LC-MS/MS analysis; type: ADME, organism-based; conditions: in vivo, read-out: Vdss
[10] = Toxicity in rat assessed as histological changes in spleen at 500 mg/kg/day; type: organism-based; conditions: in vivo
[11] = Cardiotoxicity in dog heart assessed as change in electrocardiographic parameter upto 128 uM of plasma concentration; type: toxicity, Canis lupus familiaris
[12] = Plasma protein binding in monkey; type: ADME, cell-free, Macaca mulatta; conditions: rhesus monkey, read-out: PPB (converted)
[13] = Metabolic stability in human liver microsome assessed half life at 0.5 uM by LC-MS/MS analysis; type: ADME; conditions: liver microsomes
[14] = tested on: UGT; assay: Metabolic stability assessed as dog UGT-mediated metabolism by measuring half life by phase II UGT conjugation assay; type: ADME, Canis lupus familiaris
[15] = Toxicity in rat assessed as histological changes in stomach at 500 mg/kg/day; type: organism-based; conditions: in vivo
[16] = target: Voltage-gated inwardly rectifying potassium channel KCNH2 (Homo sapiens, UniProt Q12809); assay: Inhibition of hERG; type: toxicity
[17] = tested on: Salmonella typhimurium; assay: Mutagenicity in Salmonella Typhimurium using Aroclor 1254 induced rat liver S9 fraction by […] assay; type: toxicity, organism-based; conditions: salmonella enterica subsp. enterica serovar typhimurium
[18] = Cmax in Beagle dog at 2 mg/kg, po by LC-MS/MS analysis; type: ADME, organism-based, Canis lupus familiaris; design: route oral, dose 2 mg/kg; conditions: in vivo
[19] = target: UGT (Homo sapiens, UniProt O60656+O75310+O75795+P06133+P0DTE4+P0DTE5+P16662+P19224+P22309+P22310+P35503+P35504+P36537+P54855+Q6UWM9+Q9BY64+Q9HAW7+Q9HAW8+Q9HAW9); assay: Metabolic stability assessed as human UGT-mediated metabolism by measuring half life by phase II UGT conjugation assay; type: ADME, protein assay
[20] = Clearance in Sprague-Dawley rat at 1 mg/kg, iv by LC-MS/MS analysis; type: ADME, organism-based; conditions: in vivo
[21] = Displacement of [3H](S)-2-(tert-butoxy)-2-(2-methyl-4-(p-tolyl)quinolin-3-yl)acetic acid from LEDGF-binding site of recombinant T124/T125 polymorphic HIV1 integrase by LIDIA assay; design: species or system Human immunodeficiency virus 1
[22] = Tmax in CD-1 mouse at 5 mg/kg, po by LC-MS/MS analysis; type: ADME, organism-based; conditions: in vivo
[23] = tested on: CYP; assay: Half life in dog assessed as CYP mediated metabolism in presence of […] by phase I metabolic oxidation assay; type: ADME, Canis lupus familiaris
[24] = Cardiotoxicity in dog heart assessed as decrease in blood pressure at 300 mg/kg; type: toxicity, organism-based, Canis lupus familiaris; design: scale not given: the % may be the effect or the level left; conditions: in vivo
[25] = AUC in Beagle dog at 2 mg/kg, po by LC-MS/MS analysis; type: ADME, organism-based, Canis lupus familiaris; design: dose 2 mg/kg; conditions: in vivo
[26] = Toxicity in rat assessed as lipidosis at 500 mg/kg/day; type: organism-based; conditions: in vivo
[27] = Permeability of the compound at pH 7.4 by PAMPA assay; type: ADME; conditions: read-out: permeability
[28] = Metabolic stability in rat liver microsome assessed half life at 0.5 uM by LC-MS/MS analysis; type: ADME; conditions: liver microsomes
[29] = target: T1, Cytochrome P450 1A2 (Homo sapiens, UniProt P05177); assay: Inhibition of human CYP1A2; type: ADME
T1 sequence (P05177 whole entry): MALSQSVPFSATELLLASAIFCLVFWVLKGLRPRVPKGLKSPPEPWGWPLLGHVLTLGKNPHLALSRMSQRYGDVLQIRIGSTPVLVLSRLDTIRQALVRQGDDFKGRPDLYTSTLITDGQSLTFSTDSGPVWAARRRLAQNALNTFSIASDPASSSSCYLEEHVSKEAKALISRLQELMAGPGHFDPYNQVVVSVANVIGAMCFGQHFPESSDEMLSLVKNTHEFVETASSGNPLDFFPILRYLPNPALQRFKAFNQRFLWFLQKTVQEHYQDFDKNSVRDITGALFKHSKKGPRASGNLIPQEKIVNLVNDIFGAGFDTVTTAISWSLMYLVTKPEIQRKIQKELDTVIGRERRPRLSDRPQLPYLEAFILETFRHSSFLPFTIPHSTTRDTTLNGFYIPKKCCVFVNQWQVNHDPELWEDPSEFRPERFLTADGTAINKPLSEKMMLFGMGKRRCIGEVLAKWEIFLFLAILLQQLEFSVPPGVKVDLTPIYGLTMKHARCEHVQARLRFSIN

[30] = Bioavailability in Beagle dog at 2 mg/kg, po by LC-MS/MS analysis; type: ADME, organism-based, Canis lupus familiaris; conditions: in vivo
[31] = tested on: Human immunodeficiency virus 1; assay: Antiviral activity against recombinant HIV1 NLRep-Rluc harbouring polymorphic TA infected in human MT-2 cells assessed as inhibition of virus growth in presence of fetal bovine serum by measuring luciferase activity after 5 days; type: functional, organism-based; conditions: Human immunodeficiency virus 1, NLRep, MT2, 120 h
[32] = tested on: Human immunodeficiency virus 1; assay: Antiviral activity against recombinant HIV1 NLRep-Rluc harbouring polymorphic T124/T125 integrase infected in human MT-2 cells assessed as inhibition of virus growth in presence of fetal bovine serum by measuring luciferase activity after 5 days; type: functional, organism-based, MT2; conditions: Human immunodeficiency virus 1, NLRep, MT2, 120 h
[33] = Volume of distribution at steady state in Cynomolgus monkey at 1 mg/kg, iv by LC-MS/MS analysis; type: ADME, organism-based, Macaca fascicularis; conditions: in vivo, read-out: Vdss
[34] = Cardiotoxicity in dog heart assessed as increase in heart rate at 300 mg/kg; type: toxicity, organism-based, Canis lupus familiaris; conditions: in vivo
[35] = Toxicity in rat at 500 mg/kg/day for one week; type: organism-based; conditions: in vivo
[36] = Solubility of the compound using amorphous form of sample; type: physicochemical
[37] = Clearance in CD-1 mouse at 1 mg/kg, iv by LC-MS/MS analysis; type: ADME, organism-based; conditions: in vivo
[38] = Toxicity in rat assessed as vacuolation of kidney at 500 mg/kg/day; type: organism-based; conditions: in vivo
[39] = tested on: Human immunodeficiency virus 1; assay: Antiviral activity against recombinant HIV1 NLRep-Rluc harbouring polymorphic NT infected in human MT-2 cells assessed as inhibition of virus growth in presence of fetal bovine serum by measuring luciferase activity after 5 days; type: functional, organism-based; conditions: Human immunodeficiency virus 1, NLRep, MT2, 120 h
[40] = Tmax in cynomolgus monkey at 2 mg/kg, po by LC-MS/MS analysis; type: ADME, organism-based, Macaca fascicularis; conditions: in vivo
[41] = AUC in cynomolgus monkey at 2 mg/kg, po by LC-MS/MS analysis; type: ADME, organism-based, Macaca fascicularis; design: dose 2 mg/kg; conditions: in vivo
[42] = Plasma protein binding in dog; type: ADME, cell-free, Canis lupus familiaris; conditions: read-out: PPB (converted)

Voltage-gated inwardly rectifying potassium channel KCNH2, sequence (Q12809 whole entry): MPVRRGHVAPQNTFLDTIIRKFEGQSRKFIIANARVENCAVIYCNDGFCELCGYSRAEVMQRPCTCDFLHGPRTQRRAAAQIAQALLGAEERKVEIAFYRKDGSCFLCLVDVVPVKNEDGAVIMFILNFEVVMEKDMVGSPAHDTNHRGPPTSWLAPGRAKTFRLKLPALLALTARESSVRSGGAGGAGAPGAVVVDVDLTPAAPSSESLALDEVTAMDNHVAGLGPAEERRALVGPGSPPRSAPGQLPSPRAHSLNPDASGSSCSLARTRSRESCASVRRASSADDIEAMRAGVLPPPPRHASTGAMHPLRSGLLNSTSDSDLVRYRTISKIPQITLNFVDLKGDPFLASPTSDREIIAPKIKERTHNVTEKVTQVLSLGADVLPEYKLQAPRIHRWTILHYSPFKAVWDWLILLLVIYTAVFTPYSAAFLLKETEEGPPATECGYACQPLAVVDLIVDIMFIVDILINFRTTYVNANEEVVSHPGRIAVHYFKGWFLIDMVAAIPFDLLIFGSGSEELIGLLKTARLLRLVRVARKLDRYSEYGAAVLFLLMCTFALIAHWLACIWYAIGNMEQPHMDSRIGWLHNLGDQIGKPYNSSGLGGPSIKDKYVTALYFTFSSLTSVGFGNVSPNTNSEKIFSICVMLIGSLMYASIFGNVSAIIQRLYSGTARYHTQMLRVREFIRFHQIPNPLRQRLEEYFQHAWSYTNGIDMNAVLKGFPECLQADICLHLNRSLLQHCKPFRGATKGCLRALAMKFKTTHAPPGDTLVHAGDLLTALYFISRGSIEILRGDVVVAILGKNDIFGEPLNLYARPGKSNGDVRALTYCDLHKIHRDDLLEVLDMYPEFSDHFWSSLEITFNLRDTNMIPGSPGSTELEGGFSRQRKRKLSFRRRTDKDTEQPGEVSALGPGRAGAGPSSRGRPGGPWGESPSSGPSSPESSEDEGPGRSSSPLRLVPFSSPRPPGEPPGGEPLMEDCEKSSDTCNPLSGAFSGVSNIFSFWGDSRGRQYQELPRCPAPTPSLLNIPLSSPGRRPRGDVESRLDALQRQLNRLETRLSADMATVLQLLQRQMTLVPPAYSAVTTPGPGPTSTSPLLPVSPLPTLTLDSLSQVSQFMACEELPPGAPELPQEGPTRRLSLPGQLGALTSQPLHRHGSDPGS
Cytochrome P450 2D6, sequence (P10635 whole entry): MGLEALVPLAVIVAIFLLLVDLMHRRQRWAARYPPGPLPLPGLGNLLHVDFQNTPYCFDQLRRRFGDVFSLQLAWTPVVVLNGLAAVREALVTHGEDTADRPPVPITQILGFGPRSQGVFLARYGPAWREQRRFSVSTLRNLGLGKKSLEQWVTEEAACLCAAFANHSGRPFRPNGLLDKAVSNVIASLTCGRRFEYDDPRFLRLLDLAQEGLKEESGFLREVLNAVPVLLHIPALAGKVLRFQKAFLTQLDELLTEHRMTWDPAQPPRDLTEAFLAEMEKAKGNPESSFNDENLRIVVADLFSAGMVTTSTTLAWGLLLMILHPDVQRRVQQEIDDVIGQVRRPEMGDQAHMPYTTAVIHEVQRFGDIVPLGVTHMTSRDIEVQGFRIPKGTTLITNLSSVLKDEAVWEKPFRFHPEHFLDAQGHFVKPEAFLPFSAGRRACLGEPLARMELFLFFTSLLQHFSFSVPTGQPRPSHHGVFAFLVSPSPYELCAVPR
Cytochrome P450 2C19, sequence (P33261 whole entry): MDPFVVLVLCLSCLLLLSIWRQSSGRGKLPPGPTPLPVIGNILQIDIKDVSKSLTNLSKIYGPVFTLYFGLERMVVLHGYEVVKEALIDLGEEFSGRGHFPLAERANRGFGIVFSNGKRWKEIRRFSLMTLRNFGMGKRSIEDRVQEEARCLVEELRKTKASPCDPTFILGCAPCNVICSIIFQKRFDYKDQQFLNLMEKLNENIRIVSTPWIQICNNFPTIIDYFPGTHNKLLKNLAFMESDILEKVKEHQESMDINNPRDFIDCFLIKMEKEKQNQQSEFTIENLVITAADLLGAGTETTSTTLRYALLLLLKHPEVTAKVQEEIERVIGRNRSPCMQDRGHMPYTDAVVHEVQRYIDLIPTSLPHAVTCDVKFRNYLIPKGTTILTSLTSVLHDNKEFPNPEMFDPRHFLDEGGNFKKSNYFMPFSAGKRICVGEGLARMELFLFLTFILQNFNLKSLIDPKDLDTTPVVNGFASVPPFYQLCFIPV

## Cc1nc(C)c([C@H](OC(C)(C)C)C(=O)O)c(N2CCC(C)(C)CC2)c1-c1ccc(OCCc2ccc(F)cc2)cc1
[1]
  IC50: ≥ 24.3 µM
[2]
  half-life: ≥ 120 min
[3]
  Papp: 89.6 ×10⁻⁶ cm/s
[4]
  fraction unbound: 0.2
[5]
  half-life: 378 min
[6]
  IC50: ≥ 24.3 µM
[7]
  AUC: 14 µM·h
[8]
  Vd: 0.7 L/kg
[9]
  Vd: 0.8 L/kg
[10]
  Activity: Toxic
[11]
  Activity: Non-Toxic
[12]
  fraction unbound: 0.21
[13]
  half-life at 0.5 µM: 85 min
[14]
  half-life: ≥ 120 min
[15]
  Activity: Toxic
[16]
  IC50: 670 nM
[17]
  Activity: Non-Toxic
[18]
  Cmax: 2960 nM
[19]
  half-life: ≥ 120 min
[20]
  clearance: 5.5 mL/min/kg
[21]
  IC50: 11.1 nM
[22]
  Tmax: 5 h
[23]
  half-life: > 120 min
[24]
  Activity: 6%
[25]
  AUC: 18.5 µM·h
[26]
  Activity: Toxic
[27]
  Papp: 50.5 ×10⁻⁶ cm/s
[28]
  half-life at 0.5 µM: > 120 min
[29]
  IC50: ≥ 24.3 µM
[30]
  bioavailability: 75%
[31]
  EC50: 2.8 nM
[32]
  EC50: 1.7 nM
[33]
  Vd: 1.5 L/kg
[34]
  Activity: 15%
[35]
  Activity: Toxic
[36]
  solubility: < 1 µg/mL
[37]
  clearance: 5.4 mL/min/kg
[38]
  Activity: Toxic
[39]
  EC50: 3.5 nM
[40]
  Tmax: 2 h
[41]
  AUC: 2.23 µM·h
[42]
  fraction unbound: 0.13

From ChEMBL document CHEMBL5046290, “Design, Synthesis, and Preclinical Profiling of GSK3739936 (BMS-986180), an Allosteric Inhibitor of HIV-1 Integrase with Broad-Spectrum Activity toward 124/125 Polymorphs” (J Med Chem, 2022)
